Data on 16 compounds can be found in patent publication US20240368150A1 (Hoffmann-La Roche Inc., priority 2021, published 2024).

Read-outs that look alike come from different tables or passages of the source.

Assay [1] deals with primary human T-cells. Put plainly: Proliferation assay after 5 days (CellTiter-Glo, CD3 stimulation; PBS counter screen). It counts as cell-based. As to conditions: CD3 stimulation; for Emax: read-out: Emax proliferation (% activation); for EC50: primary human T-cells, CellTiter-Glo after 5 days, EC50 of fitted sigmoidal curve, read-out: Tcell Proliferation CD3 EC50. In short, it runs like this: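 Primary human T-cells, with or without CD3 stimulation, exposed to compounds for 5 days; cell number read as ATP by CellTiter-Glo 2.0 luminescence after 45 min equilibration and 15 min reagent incubation at room temperature. Compounds activating unstimulated cells or reducing viability were flagged.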
(In general: Cellular ATP, detected with luciferase, serves as a proxy for viable cell number.)

Assay [2] has as its system primary human T-cells.
Where [3] appears, read: Homo sapiens, T-cell, 120 h, 5 days, normalized to reference compound A1 as stimulator control = 100%, DMSO neutral control.

On to `Cc1ccc(-c2nnc(-c3cc4c(cc3F)S(=O)(=O)C[C@H](N)C(=O)N4Cc3ccc(Cl)cc3)o2)nc1` [Example 129, (3R)-3-amino-5-[(4-chlorophenyl)methyl]-8-fluoro-7-[5-(5-methyl-2-pyridyl)-1,3,4-oxadiazol-2-yl]-1,1-dioxo-2,3-dihydro-1λ^6,5-benzothiazepin-4-one], for which the Emax with primary human T-cells [1] (setting [3]) was 106%. Also, the EC50 in the assay with primary human T-cells [1] (Homo sapiens, T-cell, 120 h) worked out at 1420 nM; in the assay on primary human T-cells [2], 1900 nM.

As for `CC(C)(C)c1nnc(-c2ccc3c(c2)N(Cc2ccc(OC4CCCCC4)cc2)C(=O)[C@@H](N)CS3(=O)=O)o1` [Example 434, (3R)-3-amino-7-(5-tert-butyl-1,3,4-oxadiazol-2-yl)-5-[[4-(cyclohexoxy)phenyl]methyl]-1,1-dioxo-2,3-dihydro-1λ^6,5-benzothiazepin-4-one], the Emax in the assay on primary human T-cells [1] (setting [3]) is 130%. This compound returned an EC50 with primary human T-cells [2] of 6160 nM.

As for `CC(C)(C)c1cn(-c2cc3c(cc2F)S(=O)(=O)C[C@H](N)C(=O)N3Cc2ccc(Cl)cc2)cn1` [Example 527], the “Emax proliferation (% activation)” value in the assay on primary human T-cells [1] (5 days, normalized to reference compound A1 as stimulator control = 100%, DMSO neutral control) was determined as 69 % activation. Also, the EC50 in the assay with primary human T-cells [1] worked out at 1280 nM; with primary human T-cells [2] it was 292 nM.

Turning to `CC(C)(F)c1nc(-c2cc3c(cc2F)S(=O)(=O)C[C@H](N)C(=O)N3Cc2ccc(Cl)cc2)no1` [Example 47, (3R)-3-amino-5-[(4-chlorophenyl)methyl]-8-fluoro-7-[5-(1-fluoro-1-methyl-ethyl)-1,2,4-oxadiazol-3-yl]-1,1-dioxo-2,3-dihydro-1λ^6,5-benzothiazepin-4-one], the Emax with primary human T-cells [1] (setting [3]) was 142%. The EC50 in the assay with primary human T-cells [1] (Homo sapiens, T-cell, 120 h) was determined as 561 nM; in the assay with primary human T-cells [2] it was 2860 nM.

Turning to `Cc1ccccc1-c1nnc(-c2cc3c(cc2F)S(=O)(=O)C[C@H](N)C(=O)N3Cc2ccc(Cl)cc2)o1` [Example 98, (3R)-3-amino-5-[(4-chlorophenyl)methyl]-8-fluoro-7-[5-(o-tolyl)-1,3,4-oxadiazol-2-yl]-1,1-dioxo-2,3-dihydro-1λ^6,5-benzothiazepin-4-one], the Emax in the assay with primary human T-cells [1] (setting [3]) amounted to 112%. The EC50 in the assay with primary human T-cells [1] (Homo sapiens, T-cell, 120 h) amounted to 64.6 nM; in the assay with primary human T-cells [2], 71.2 nM.

Consider `CC#CCOc1ccc(CN2C(=O)[C@@H](N)CS(=O)(=O)c3ccc(-c4nnc(C(C)(C)C)o4)cc32)cc1` [Example 441, (3R)-3-amino-7-(5-tert-butyl-1,3,4-oxadiazol-2-yl)-5-[(4-but-2-ynoxyphenyl)methyl]-1,1-dioxo-2,3-dihydro-1λ^6,5-benzothiazepin-4-one], for which the Emax in the assay with primary human T-cells [1] (setting [3]) came to 128%. The EC50 was 1020 nM in the assay with primary human T-cells [1] (Homo sapiens, T-cell, 120 h) and 3850 nM with primary human T-cells [2].

`CN1CCN(CC(C)(C)c2nnc(-c3cc4c(cc3F)S(=O)(=O)C[C@H](N)C(=O)N4Cc3ccc(Cl)cc3)o2)CC1` [Example 148, (3R)-3-amino-5-[(4-chlorophenyl)methyl]-7-[5-[1,1-dimethyl-2-(4-methylpiperazin-1-yl)ethyl]-1,3,4-oxadiazol-2-yl]-8-fluoro-1,1-dioxo-2,3-dihydro-1λ^6,5-benzothiazepin-4-one]: the Emax with primary human T-cells [1] (setting [3]) is 48%. The EC50 is greater than 10000 nM in the assay on primary human T-cells [1] (Homo sapiens, T-cell, 120 h) and 988 nM with primary human T-cells [2].

For the compound `CC(C)(C)c1nnc(-c2cc3c(cc2F)S(=O)(=O)C[C@H](N)C(=O)N3Cc2ccc(OC3CCOC3)cc2)o1` (stereo partly drawn) [Example 221, (3R)-3-amino-7-(5-tert-butyl-1,3,4-oxadiazol-2-yl)-8-fluoro-1,1-dioxo-5-[(4-tetrahydrofuran-3-yloxyphenyl)methyl]-2,3-dihydro-1λ^6,5-benzothiazepin-4-one], the Emax with primary human T-cells [1] (setting [3]) was found to be 107%. Moreover, the EC50 came out at 255 nM with primary human T-cells [1] (Homo sapiens, T-cell, 120 h) and 382 nM with primary human T-cells [2].

On to `Cc1ccc(-c2nnc(-c3cc4c(cc3F)S(=O)(=O)C[C@H](N)C(=O)N4Cc3ccc(Cl)cc3)o2)cn1` [Example 133, (3R)-3-amino-5-[(4-chlorophenyl)methyl]-8-fluoro-7-[5-(6-methyl-3-pyridyl)-1,3,4-oxadiazol-2-yl]-1,1-dioxo-2,3-dihydro-1λ^6,5-benzothiazepin-4-one], for which the Emax in the assay on primary human T-cells [1] (setting [3]) came to 144%. For the same compound, the EC50 in the assay with primary human T-cells [1] (Homo sapiens, T-cell, 120 h) came to 324 nM; in the assay with primary human T-cells [2], 1190 nM.

Turning to `CC(N)(c1nnc(-c2cc3c(cc2F)S(=O)(=O)C[C@H](N)C(=O)N3Cc2ccc(Cl)cc2)o1)C(F)(F)F` (stereo partly drawn) [Example 127, (3R)-3-amino-7-[5-(1-amino-2,2,2-trifluoro-1-methyl-ethyl)-1,3,4-oxadiazol-2-yl]-5-[(4-chlorophenyl)methyl]-8-fluoro-1,1-dioxo-2,3-dihydro-1λ^6,5-benzothiazepin-4-one], the Emax with primary human T-cells [1] (setting [3]) was 110%. The EC50 in the assay on primary human T-cells [1] (Homo sapiens, T-cell, 120 h) worked out at 181 nM; in the assay with primary human T-cells [2], 232 nM.

In the case of `COC(F)(c1nc(-c2cc3c(cc2F)[S+]([O-])C[C@H](N)C(=O)N3Cc2ccc(Cl)cc2)no1)C(F)(F)F` (stereo partly drawn) [Example 338, (3R)-3-amino-5-[(4-chlorophenyl)methyl]-8-fluoro-1-oxo-7-[5-(1,2,2,2-tetrafluoro-1-methoxy-ethyl)-1,2,4-oxadiazol-3-yl]-2,3-dihydro-1λ^4,5-benzothiazepin-4-one], the Emax with primary human T-cells [1] (setting [3]) was determined as 137%. The EC50 was found to be 282 nM in the assay with primary human T-cells [1] (Homo sapiens, T-cell, 120 h) and 1580 nM with primary human T-cells [2].

With `N[C@H]1CS(=O)(=O)c2cc(F)c(-c3noc(N4[C@@H]5CC[C@H]4COC5)n3)cc2N(Cc2ccc(Cl)cc2)C1=O` [Example 200, (3R)-3-amino-5-[(4-chlorophenyl)methyl]-8-fluoro-1,1-dioxo-7-[5-[(1R,5S)-3-oxa-8-azabicyclo[3.2.1]octan-8-yl]-1,2,4-oxadiazol-3-yl]-2,3-dihydro-1λ^6,5-benzothiazepin-4-one], the Emax in the assay on primary human T-cells [1] (setting [3]) is 88%. In addition, the EC50 in the assay with primary human T-cells [1] (Homo sapiens, T-cell, 120 h) was 37.9 nM; with primary human T-cells [2], 142 nM.

Turning to `N[C@H]1CS(=O)(=O)c2ccc(-c3nnc(-c4ccc(F)cc4)o3)cc2N(Cc2ccc(Cl)cc2)C1=O` [Example 375, (3R)-3-amino-5-[(4-chlorophenyl)methyl]-7-[5-(4-fluorophenyl)-1,3,4-oxadiazol-2-yl]-1,1-dioxo-2,3-dihydro-1λ^6,5-benzothiazepin-4-one], in the assay on primary human T-cells [1] (setting [3]), the Emax is 62%. The EC50 in the assay on primary human T-cells [1] (Homo sapiens, T-cell, 120 h) came to 817 nM; in the assay on primary human T-cells [2], 461 nM.

For `N[C@H]1CS(=O)(=O)c2cc(F)c(-c3nnc(C4CC4)o3)cc2N(Cc2ccc(Cl)cc2)C1=O` [Example 85, (3R)-3-Amino-5-[(4-chlorophenyl)methyl]-7-(5-cyclopropyl-1,3,4-oxadiazol-2-yl)-8-fluoro-1,1-dioxo-2,3-dihydro-1λ^6,5-benzothiazepin-4-one], the Emax in the assay with primary human T-cells [1] (setting [3]) amounted to 100%. In addition, the EC50 turned out to be 237 nM with primary human T-cells [1] (Homo sapiens, T-cell, 120 h) and 470 nM in the assay on primary human T-cells [2].

In the case of `CC(C)(C)c1nnc(-c2cc3c(cc2F)S(=O)(=O)C[C@H](N)C(=O)N3Cc2ccc(F)cc2)o1` [Example 231, (3R)-3-amino-7-(5-tert-butyl-1,3,4-oxadiazol-2-yl)-8-fluoro-5-[(4-fluorophenyl)methyl]-1,1-dioxo-2,3-dihydro-1\6,5-benzothiazepin-4-one], in the assay with primary human T-cells [1] (setting [3]), the Emax is 114%. Besides, the EC50 amounted to 257 nM with primary human T-cells [1] (Homo sapiens, T-cell, 120 h) and 295 nM in the assay with primary human T-cells [2].

In the case of `CC(C)Cc1nnc(-c2cc3c(cc2F)S(=O)(=O)C[C@H](N)C(=O)N3Cc2ccc(Cl)cc2)o1` [Example 101, (3R)-3-amino-5-[(4-chlorophenyl)methyl]-8-fluoro-7-(5-isobutyl-1,3,4-oxadiazol-2-yl)-1,1-dioxo-2,3-dihydro-1λ^6,5-benzothiazepin-4-one], the Emax with primary human T-cells [1] (setting [3]) amounted to 121%. The EC50 in the assay with primary human T-cells [1] (Homo sapiens, T-cell, 120 h) came to 49.1 nM; with primary human T-cells [2], 72.2 nM.
